# Test results published in EP0590024B1, “TOPICAL COMPOSITION ENHANCING HEALING OF HERPES LESIONS” (VIRO-TEX CORPORATION, priority 1991, dated 1993).
# Structures can show the parent of a compound that is named as a salt.
# Legend:
# MS strain of HSV-2 = experiment: Primary genital HSV-2 infection of guinea pigs, topical treatment; type: in vivo; details: ACV as 5%
# Procedure: The antiviral activity of several compounds in a primary genital HSV-2 infection of guinea pigs was tested. The experiments were placebo-controlled and uninfected animals were treated with each of the preparations to assess skin irritation. Groups treated with 5% Acyclovir were included as positive controls.
# Virus and Viral Inoculation. The MS strain of HSV-2 was utilized to infect animals. Female Hartley strain guinea pigs, Charles River Breeding Laboratories, Kingston, NY, weighing 250 to 300 g were inoculated intravaginally with 1.4 x 10^5 plaque forming units of HSV-2 one hour after being swabbed for the removal of vaginal secretions.
# Treatment of Guinea Pigs. Groups of ten infected guinea pigs were treated topically, 0.1 ml intravaginally and 0.1 ml on external genital skin, three times daily, approximately every eight hours, for seven days, beginning either 6 hr or 48 hr after HSV inoculation. Groups of three uninfected animals were used to assess toxicity of each preparation.
# Simple Collection and Virus Assays. To determine the effect of treatment on vaginal virus replication, swabs of vaginal secretions were obtained on days 1, 3, 5, 7 and 10 after HSV-2 inoculation, placed in a tube containing 2.0 ml of media, vortexed and frozen at -70°C until titrated for HSV-2. When all samples were collected, they were thawed, diluted serially and HSV-2 titers determined using a microtiter CPE assay in rabbit kidney cells. Mean peak virus titers and areas under the virus titer-day curves were calculated and analyzed.
# Scoring of External Genital Lesions. To determine the effect of therapy on the development and spread of external genital lesions, lesion severity was scored on a 0-5+ scale through the primary infection (21 days). Mean peak lesion scores and the area under the lesion score-day curves were calculated and analyzed.
# Evaluation of Efficacy. The number of animals infected over the number inoculated, lesion score-day areas and virus titer-day areas under the curve, peak lesion scores and peak virus titers between untreated and placebo-treated or placebo-treated and drug-treated animals were compared using the Mann-Whitney U rank sum test. A p-value of 0.05 or less was considered significant.
# The base formulation is as defined for the preferred embodiment of the composition for enhancing […] of viral lesions, but without SLS or anesthetic. Acyclovir (ACV) was used as a positive control (i.e., having antiviral activity). Placebo (PBS) treated animals were compared with an untreated control animal. 2A was compared with the untreated animals and placebo-treated animals. ACV groups were compared to the placebo-treated group. All others were compared to 2A.
# HSV-2 [1] = experiment: Inactivation studies: direct inactivation of HSV-2; set-up: species or system herpes simplex virus type-2; details: for concentrations tested at which the compound does not directly inactivate HSV-2: 30 minutes at room temperature, up to highest concentration tested
# Procedure: (§1) A clinical isolate from a genital lesion of Herpes simplex virus, type (HSV-2), was used.
# (§2) Stocks of viruses were grown by infecting MRC-5 cells at multiplicity of 0.01 plaque forming units (PFU) per cell and harvested in maintenance medium. Virus was harvested by three cycles of freezing at -70°C and thawing, followed by centrifugation at 1000 x g at 4°C for 15 minutes to remove cell debris. Resulting virus stocks were aliquoted and frozen at -70°C.
# To determine if a test compound directly inactivates HSV-2, 0.5 ml of serial dilutions of the compound to be tested was mixed with 0.5 ml of stock HSV-2 (titer = […]) and incubated at room temperature for 30 minutes. After 30 minutes, the compound-virus mixture was diluted 10,000 fold in maintenance medium and virus recovery was determined by inoculating MRC-5 cells. The cells were graded for cytopathic effect after 24 hr, 48 hr, and 72 hr.
# HSV-2 [2] = experiment: Antiviral studies: inhibition of HSV-2 replication in MRC-5 cells (virus yield); type: cell-based, herpes simplex virus type-2
# Procedure: as §1, §2
# Antiviral activity, i.e., the ability of the compound to inhibit infection or replication of virus in cells, was measured by infecting confluent monolayers of MRC-5 cells in 12 x 100 mm culture tubes at a multiplicity of infection (MOI) of 3.0 plaque forming units (PFU) per cell of HSV-2 by removing the maintenance medium, washing the monolayers three times with phosphate buffered saline (PBS), and adding 0.1 ml of […] suspended in PBS. The multiplicity of infection was calculated by counting the number of viable cells in a duplicate tube and diluting the stock virus to produce a viral inoculum in a volume of 0.1 ml which contained three times the PFUs as the number of cells counted. After a 60 minute absorption period, the inoculum was removed and 4 mls of test compound at appropriate concentrations in maintenance medium or maintenance medium (control) was added. The tubes were incubated at 37°C for an additional 23 hours. At 24 hours post-infection, the medium was removed and the monolayers were washed twice with PBS and frozen and thawed 3 times in 1 ml of maintenance medium. Virus yields were determined by serial end-point titrations in 96-well tissue culture plates containing MRC-5 cells. All experiments were tested in triplicate. 50% end-points were calculated and titers were expressed in TCID 50 units. Antiviral effect was determined by subtracting the difference between the TCID 50s of the test compound and from the TCID 50s of HSV-2 virus stock titrated in the same experiment and calculated in percentages.
# MRC-5 cells = details: for concentrations exhibiting significant cytotoxicity: 1440 min
# Vero cells = experiment: Cytotoxicity assay in Vero cells; type: cell-based, green monkey
# Procedure: A continuous line of human embryo lung cells (MRC-5) were grown in Eagle's minimal essential medium (MEM) in Earle's salts supplemented with 2 mM L-glutamine, […] gentamicin, 0.25 mg/ml amphotericin B (Fungisone) ad 10% heat-inactivated fetal calf serum (growth medium). Cells were grown at 37°C in a humidified 5% CO2 atmosphere or in closed flasks. Maintenance medium was the same basic composition, except the concentration of fetal calf serum was 2%. Vero cells (continuous line of green monkey kidney cells) were grown in the same manner as MRC-5 cells.
# Cytotoxicity assays were performed in MRC-5 cells and in Vero cells. The test compound was dissolved in maintenance medium at selected concentrations and inoculated onto MRC-5 or Vero cells in 96 well tissue culture plates. Each concentration was inoculated in triplicate. The plates were incubated at 37°C in 5% CO2 and graded for cytotoxicity at 24,48 and 72 hours after inoculation. The highest concentration of compound showing 50% cytotoxicity after 72 hours was designated the end point.
smiles,measurement,setting,value
"Nc1nc2c(ncn2COCCO)c(=O)[nH]1 [ACV, Acyclovir]",virus titer-day area under the curve (AUC),"MS strain of HSV-2; therapy given 6 hr after viral inoculation, vs placebo, p 0.05",significantly reduced
same,mean peak virus titer,"MS strain of HSV-2; therapy given 6 hr after viral inoculation, vs placebo, p <0.01",significantly reduced
same,lesion development,"MS strain of HSV-2; therapy initiated 6 hr following HSV-2 inoculation, P <0.05 or less",significantly decreased
same,mean peak lesion score,"MS strain of HSV-2; therapy initiated 6 hr following inoculation, P <0.001",reduced
O=C(O)c1cccnc1 [Niacin],concentrations tested at which the compound does not directly inactivate HSV-2,HSV-2 [1],up to 0.25%
same,inhibition of the replication of HSV-2 / antiviral activity,HSV-2 [2]; concentration not given,does not inhibit
same,concentrations non-toxic in MRC-5 cells,MRC-5 cells; human,≤ 0.25%
"CCN(CC)CCOC(=O)c1ccc(N)cc1 [Procaine HCl, Procaine hydrochloride]",concentrations showing significant toxicity,Vero cells; monkey,above 2.0%
same,concentrations tested at which the compound does not directly inactivate HSV-2,HSV-2 [1],up to 4%
same,concentrations unable to inhibit the replication of HSV-2,"HSV-2 [2]; MOI 3.0, 24 hours post-infection, up to stated concentration",up to 2%
same,inhibition of the replication of HSV-2 / antiviral activity,HSV-2 [2]; concentration not given,does not
same,concentrations exhibiting significant cytotoxicity,MRC-5 cells; human,above 0.25%
"CCCCCCCCCCCCOS(=O)(=O)O [SLS, sodium lauryl (or dodecyl) sulfate]",direct inactivation of HSV-2,HSV-2 [1]; concentration of 0.00032%,No inactivation
same,inhibition of viral replication,HSV-2 [2]; 0.0013%,does not inhibit
same,inhibition of viral replication,HSV-2 [2]; 0.0025%,does not inhibit
same,concentrations highly toxic to MRC-5 cells,"MRC-5 cells; MRC-5 cells, time not stated",above 0.0025%
CCCCNc1ccc(C(=O)OCCN(C)C)cc1 [Tetracaine HCl],significant toxicity in Vero cells,"Vero cells; Vero cells, result in words",not in Vero cells
same,concentrations tested at which the compound does not directly inactivate HSV-2,HSV-2 [1],up to 2%
same,inhibition of the replication of HSV-2,HSV-2 [2]; 0.25%,partially inhibited
same,inhibition of the replication of HSV-2 / antiviral activity,"HSV-2 [2]; 0.5%, HCl",partially inhibited
same,inhibition of the replication of HSV-2 / antiviral activity,"HSV-2 [2]; 0.5%, listed as tetracaine HCl, HCl",some antiviral activity
same,concentrations exhibiting significant cytotoxicity,MRC-5 cells; human,above 0.03%
